Where “and” joins values, the source holds several entries; their conditions need not be identical. Identical values can stand only once.
Key:
hCB1 receptor = hCB1 receptor (Homo sapiens, UniProt P21554); experiment: AequoScreen hCB1 receptor assay (flash luminescence, recombinant CHO-K1 cells); details: for Emax: CHO-K1, read-out: Efficacy (% JWH-018 activity), Emax, Emax from dose-response curves, normalized to JWH-018 at 20 µg/mL; for Emax / Efficacy (% JWH-018 activity), Emax: triplicates; for EC50: EC50, 8 concentrations 20 µg/mL to 76 or 9.5 ng/mL, normalized to JWH-018 between runs; for Potency retained, % of the potency of the parent: hydroxyindole metabolites versus AM-2201 or JWH-018; for Efficacy (% JWH-018 activity), Emax: Emax from dose-response curves, normalized to JWH-018 at 20 µg/mL
CB1 receptor = details: cited from earlier work
[1] = system: serotonin receptor 5-HT2A; design: method as in PMID 27779402, PMID 33160102, PMID 21755008; details: cited from earlier work

hCB1 receptor, sequence (P21554 whole entry): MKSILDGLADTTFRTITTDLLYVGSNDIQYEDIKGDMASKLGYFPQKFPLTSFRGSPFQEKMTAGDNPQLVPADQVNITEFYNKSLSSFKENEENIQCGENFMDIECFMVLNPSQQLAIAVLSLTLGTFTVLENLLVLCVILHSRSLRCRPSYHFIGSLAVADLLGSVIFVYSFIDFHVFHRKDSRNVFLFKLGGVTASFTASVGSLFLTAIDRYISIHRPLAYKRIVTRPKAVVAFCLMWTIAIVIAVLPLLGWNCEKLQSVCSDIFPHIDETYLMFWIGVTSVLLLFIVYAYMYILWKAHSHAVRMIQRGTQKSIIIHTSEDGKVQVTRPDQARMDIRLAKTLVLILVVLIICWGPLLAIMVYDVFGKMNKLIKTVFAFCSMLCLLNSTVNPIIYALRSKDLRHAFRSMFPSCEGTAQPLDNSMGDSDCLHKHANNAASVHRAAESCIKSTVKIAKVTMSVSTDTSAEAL

Row | Compound | Emax (hCB1 receptor) | EC50 (hCB1 receptor) | also measured
1 | O=C(c1cccc2ccccc12)c1c(O)n(CCCCCF)c2ccccc12 [2-OH indole AM-2201] | 0.26% |  | 
2 | CCCCCn1c(O)c(C(=O)c2cccc3ccccc23)c2ccccc21 [2-OH indole JWH-018] | -0.38% |  | 
3 | O=C(c1cccc2ccccc12)c1cn(CC(O)CCCF)c2ccccc12 (stereo not drawn) [2-OH pentyl AM-2201] | 95.1% | 375 nM | 
4 | CCCC(O)Cn1cc(C(=O)c2cccc3ccccc23)c2ccccc21 (stereo not drawn) [2-OH pentyl JWH-018] | 82% | 750 nM | 
5 | CCCC(O)Cn1nc(C(=O)c2cccc3ccccc23)c2ccccc21 (stereo not drawn) [2-OH pentyl THJ-018] | 93.6% | 1110 nM | 
6 | O=C(c1cccc2ccccc12)c1nn(CC(O)CCCF)c2ccccc12 (stereo not drawn) [2-OH-pentyl THJ-2201] | 87% | 403 nM | 
7 | O=C(c1cccc2ccccc12)c1cn(CCC(O)CCF)c2ccccc12 (stereo not drawn) [3-OH pentyl AM-2201] | 100% | 221 nM | 
8 | CCC(O)CCn1cc(C(=O)c2cccc3ccccc23)c2ccccc21 (stereo not drawn) [3-OH pentyl JWH-018] | 96% | 3510 nM | 
9 | CCC(O)CCn1nc(C(=O)c2cccc3ccccc23)c2ccccc21 (stereo not drawn) [3-OH pentyl THJ-018] | 99.8% | 202 nM | 
10 | O=C(c1cccc2ccccc12)c1nn(CCC(O)CCF)c2ccccc12 (stereo not drawn) [3-OH-pentyl THJ-2201] | 101% | 159 nM | 
11 | O=C(c1cccc2ccccc12)c1cn(CCCCCF)c2cccc(O)c12 [4-OH indole AM-2201] | 94.6% | 44 nM and 43.7 nM | Potency retained, % of the potency of the parent (hCB1 receptor): 83%
12 | CCCCCn1cc(C(=O)c2cccc3ccccc23)c2c(O)cccc21 [4-OH indole JWH-018] | 89.8% | 83.6 nM | Potency retained, % of the potency of the parent (hCB1 receptor): 51%; Activity on the CB1 receptor in words (CB1 receptor): active
13 | O=C(c1cccc2ccccc12)c1cn(CCCC(O)CF)c2ccccc12 (stereo not drawn) [4-OH pentyl AM-2201] | 97.1% | 63.6 nM | 
14 | CC(O)CCCn1cc(C(=O)c2cccc3ccccc23)c2ccccc21 (stereo not drawn) [4-OH pentyl JWH-018] | 105% | 288 nM | hCB1 activity in other in vitro studies, in words (CB1 receptor): active metabolites
15 | CC(O)CCCn1nc(C(=O)c2cccc3ccccc23)c2ccccc21 (stereo not drawn) [4-OH pentyl THJ-018] | 98.5% | 175 nM | 
16 | O=C(c1cccc2ccccc12)c1nn(CCCC(O)CF)c2ccccc12 (stereo not drawn) [4-OH-pentyl THJ-2201] | 99.2% | 13.7 nM | Potency increase versus the parent SC (hCB1 receptor; metabolite more potent than parent): 2.2 ×

Row | Compound | Emax (hCB1 receptor) | EC50 (hCB1 receptor) | also measured
17 | O=C(c1cccc2ccccc12)c1cn(CCCCCF)c2ccc(O)cc12 [5-OH indole AM-2201] | 93.4% | 306 nM | Potency retained, % of the potency of the parent (hCB1 receptor): over 12%
18 | CCCCCn1cc(C(=O)c2cccc3ccccc23)c2cc(O)ccc21 [5-OH indole JWH-018] | 88.9% | 1130 nM | Potency retained, % of the potency of the parent (hCB1 receptor): 4%; Activity on the CB1 receptor in words (CB1 receptor): active
19 | O=C(c1cccc2ccccc12)c1cn(CCCCCO)c2ccccc12 [5-OH pentyl JWH-018] | 63.1% | 178 nM | hCB1 activity class in words (full agonist, partial agonist, inactive) (hCB1 receptor; less than 20% efficacy regarded as inactive): partial agonist; hCB1 activity in other in vitro studies, in words (CB1 receptor): active metabolites
20 | O=C(c1cccc2ccccc12)c1nn(CCCCCO)c2ccccc12 [5-OH pentyl THJ-018] | 67.3% | 274 nM | 
21 | O=C(c1cccc2ccccc12)c1cn(CCCCCF)c2cc(O)ccc12 [6-OH indole AM-2201] | 94% | 122 nM | Efficacy (% JWH-018 activity), Emax (hCB1 receptor): 94.04 % JWH-018 activity; Potency retained, % of the potency of the parent (hCB1 receptor): over 12%
22 | CCCCCn1cc(C(=O)c2cccc3ccccc23)c2ccc(O)cc21 [6-OH indole JWH-018] | 59% | 460 nM | Efficacy (% JWH-018 activity), Emax (hCB1 receptor): 59.31 % JWH-018 activity; Potency retained, % of the potency of the parent (hCB1 receptor): 4%; Activity on the CB1 receptor in words (CB1 receptor): active; hCB1 activity in other in vitro studies, in words (CB1 receptor): significantly less Emax than its 5-hydroxy isomer
23 | O=C(c1cccc2ccccc12)c1cn(CCCCCF)c2c(O)cccc12 [7-OH indole AM-2201] | 110% | 282 nM | Efficacy (% JWH-018 activity), Emax (hCB1 receptor): 109.80 % JWH-018 activity; Potency retained, % of the potency of the parent (hCB1 receptor): over 12%
24 | CCCCCn1cc(C(=O)c2cccc3ccccc23)c2cccc(O)c21 [7-OH indole JWH-018] | < 20% |  | Efficacy (% JWH-018 activity), Emax (hCB1 receptor): 15.81 % JWH-018 activity; Activity on the CB1 receptor in words (CB1 receptor): active
25 | O=C(c1cccc2ccccc12)c1cn(CCCCCF)c2ccccc12 [AM-2201, [1-(5-fluoropentyl)-1H-indol-3-yl]-1-naphthalenyl-methanone, reference compound] | 99.7% | 36 nM and 36.4 nM | 
26 | CCCCCn1cc(C(=O)c2cccc3ccccc23)c2ccccc21 [JWH-018, 1-naphthalenyl(1-pentyl-1H-indol-3-yl)-methanone, reference compound] | 102% | 42.4 nM | hCB1 activity in other in vitro studies, in words (CB1 receptor): agonist at nanomolar concentrations
27 | O=C(O)CCCCn1cc(C(=O)c2cccc3ccccc23)c2ccccc21 [Pentanoic acid JWH-018] | 0.23% |  | hCB1 activity in other in vitro studies, in words (CB1 receptor): inactive
28 | O=C(O)CCCCn1nc(C(=O)c2cccc3ccccc23)c2ccccc21 [Pentanoic acid THJ-018] | 11.7% |  | 
29 | CCCCCn1nc(C(=O)c2cccc3ccccc23)c2ccccc21 [THJ-018, 1-naphthalenyl(1-pentyl-1H-indazol-3-yl)-methanone, reference compound] | 96.4% | 48.8 nM | Efficacy (% JWH-018 activity), Emax (hCB1 receptor): 96.34 % JWH-018 activity
30 | O=C(c1cccc2ccccc12)c1nn(CCCCCF)c2ccccc12 [THJ-2201, [1-(5-fluoropentyl)-1H-indazol-3-yl]-1-naphthalenyl-methanone, reference compound] | 92.8% | 30.7 nM and 30.6 nM | 
31 | CCCCCn1cc(C(=O)O)c2ccccc21 [carboxylic acid PB-22, reference compound] |  |  | Activation of the serotonin receptor 5-HT2A in words [1]: activated; CB1 / hCB1 activity in words (CB1 receptor; in vivo rat model and in vitro): inactive
32 | O=C(c1cccc2ccccc12)c1cn(CCCCCO[C@@H]2O[C@H](C(=O)O)[C@@H](O)[C@H](O)[C@H]2O)c2ccccc12 [reference compound] |  |  | Activity on hCB1 in words (CB1 receptor): neutral antagonist
